Laboratory results reported in US10766866B2, “Deterrents for arthropods and marine organisms” (priority 2017, dated 2020).

Columns and labels:
[1] = target: T1, Hsα2C-AR (human α2C adrenergic receptor) (Homo sapiens, UniProt P18825); test: [3H]rauwolscine competition radioligand binding, membranes of clonal mammalian cell lines; conditions: 50 mM Tris pH 7.4, 25° C., 2 hr, Cheng-Prusoff
T1 construct: expressed in transfected cells
T1 sequence (P18825 1-462): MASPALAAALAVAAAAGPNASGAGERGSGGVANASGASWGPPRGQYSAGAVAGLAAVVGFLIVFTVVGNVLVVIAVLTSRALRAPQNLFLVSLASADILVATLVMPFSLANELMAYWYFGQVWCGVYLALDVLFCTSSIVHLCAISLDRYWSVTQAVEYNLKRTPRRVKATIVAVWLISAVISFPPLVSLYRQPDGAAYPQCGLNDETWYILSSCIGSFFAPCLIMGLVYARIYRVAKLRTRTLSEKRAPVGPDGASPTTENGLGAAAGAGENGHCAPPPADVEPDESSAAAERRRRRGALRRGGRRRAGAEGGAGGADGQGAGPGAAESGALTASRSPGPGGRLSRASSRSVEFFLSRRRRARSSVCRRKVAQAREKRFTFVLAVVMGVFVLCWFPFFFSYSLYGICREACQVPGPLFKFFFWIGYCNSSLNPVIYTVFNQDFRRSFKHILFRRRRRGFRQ
From the text: (§1) Functional expression of cloned arthropod OctRs and human α2-ARs: The cDNAs for α-like OctRs from different arthropod species (e.g., Anopheles gambiae, Aedes aegypti, Periplaneta americana, Drosophila melanogaster, Ixodes scapularis, Balanus improvises) and for α2-AR subtypes from humans were individually subcloned into mammalian expression vectors. These plasmids, which harbor a resistance gene for the selection drug G418 and the cDNA sequence for the receptor of interest, were individually transfected into mammalian cells using a calcium phosphate precipitation method. G418 selection was then employed to generated stable clonal cell lines. Utilizing rapid filtration radioligand binding techniques, the cell surface density of receptor expression of the individual clonal cell lines was determined at equilibrium and those with similar high levels of expression were selected for further experiments. Briefly, binding conditions were 50 mM Tris binding buffer pH 7.4 at 25° C. and an ice-cold wash buffer 10 mM Tris-HCl, pH 7.4). The radioligand was [3H]rauwolscine and non-specific binding was determined in the presence of 10 μM atipamezole. Following the addition of membranes prepared from the clonal cell lines, samples were mixed and allowed 2 hr. to reach equilibrium before rapid filtration and washing through 0.3% PEI-treated GF/C filters. The radioactivity remaining on the filters was quantified by scintillation counting. Receptor density (Bmax) was back calculated knowing the specific activity of the radioligand and applying the equation for a square hyperbola model: Bmax=(Y·(KD+X))/X, where Y is [specifically bound radioligand] and X=[radio ligand concentration]. The affinity (KD) for the radioligand for each receptor was determined in separate saturation isotherm binding experiments using the same binding conditions as describe above.
(§2) Measurement of compound affinities by competition radioligand binding: Affinities (Ki) for compounds were determined by [3H]rauwolscine competition binding using the same binding conditions as described above. The Ki values were calculated from IC50 values using the Cheng-Prusoff equation.

[2] = target: T2, Hsα2A-AR (human α2A adrenergic receptor) (Homo sapiens, UniProt P08913); test: as above; conditions: 50 mM Tris pH 7.4, 25° C., 2 hr, Cheng-Prusoff
T2 construct: expressed in transfected cells; membranes
T2 sequence (P08913 whole entry): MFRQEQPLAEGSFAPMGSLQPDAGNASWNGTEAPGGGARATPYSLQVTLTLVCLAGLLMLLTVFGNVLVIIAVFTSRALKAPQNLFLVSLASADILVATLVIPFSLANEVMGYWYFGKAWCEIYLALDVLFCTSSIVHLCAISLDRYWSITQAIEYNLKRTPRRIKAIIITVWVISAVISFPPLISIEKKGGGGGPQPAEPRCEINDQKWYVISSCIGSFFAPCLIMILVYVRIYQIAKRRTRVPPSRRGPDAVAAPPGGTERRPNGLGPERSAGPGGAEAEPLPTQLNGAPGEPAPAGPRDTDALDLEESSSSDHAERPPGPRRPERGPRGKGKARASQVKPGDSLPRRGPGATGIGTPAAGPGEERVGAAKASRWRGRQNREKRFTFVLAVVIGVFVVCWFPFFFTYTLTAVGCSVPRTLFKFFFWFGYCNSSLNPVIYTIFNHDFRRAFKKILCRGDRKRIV
From the text: as §1, §2

[3] = tested on: Periplaneta americana OctR (PaOctR); test: OctR activation, change in intracellular calcium; format: cell-based; conditions: Periplaneta cockroach OctR over Homo sapien α2-AR subtypes
From the text: as §1
(§3) Measurement of OctR activation by measuring changes in intracellular calcium: Activation of arthropod α-like OctRs increases intracellular calcium via a Gq-coupling mechanism. This involves activation of phospholipase C leading to an increase in intracellular inositol triphosphate (IP3) which then activates IP3-gated calcium channels in the endoplasmic reticulum causing a transient rise in intracellular calcium. These changes in intracellular calcium upon OctR activation were measured by loading cells with intracellular calcium sensitive dye CALCIUM 6QR and reading the change in calcium-induced fluorescent signal over time on a FlexStation 3 microplate reader.

[4] = tested on: Anopheles gambiae mosquito isoform A OctR (AgAOctR); test: OctR activation, change in intracellular calcium; format: cell-based; conditions: AgAOctR over Homo sapien α2-AR subtypes
From the text: as §1, §3

[5] = tested on: Ixodes scapularis tick OctR (IsTOctR); test: OctR activation, change in intracellular calcium; format: cell-based; conditions: Ixodes tick OctR over Homo sapien α2-AR subtypes
From the text: as §1, §3

[6] = tested on: IsTOctR (Ixodes octopamine receptor), cloned α-like OctR; test: OctR activation: change in intracellular calcium (CALCIUM 6QR dye, FlexStation 3) in stably transfected mammalian cells; format: cell-based, Ixodes scapularis; conditions: agonist, read-out: IsTOctR (Ixodes octopamine receptor) EC50
From the text: as §1, §3

[7] = tested on: Aedes mosquito; test: Protection against mosquito biting and toxicity to mosquitoes; format: in vivo

Question: What does the source list for C=C(c1cnc[nH]1)c1cccc(C)c1C [AZ0027]?
Answer: Ki [1]: 231 ± 46 nM; Ki [2]: 109 ± 16 nM; selectivity Ki(Hsα2-AR)/EC50(OctR) [3]: highly selective; selectivity Ki(Hsα2-AR)/EC50(OctR) [4]: highly selective; selectivity Ki(Hsα2-AR)/EC50(OctR) [5]: highly selective; EC50 [6]: 0.51 ± 0.28 nM; protection against mosquito biting ([7]; Aedes mosquito): protects against Aedes mosquito biting; toxicity to mosquitoes ([7]; DEET: at the lowest concentration that produces maximal protection against biting (LC50)): non-toxic to mosquitoes; potency relative to DEET ([7]; protection against mosquito biting): over 500 fold
